Experimental data: patent US12139520B2 (priority 2020, dated 2024)
Bridge positions count the residues as written; N and C are the ends. Square brackets hold non-standard residues; d marks the D form. Peptide text beside a SMILES is read from it. Hyp = O=C(O)[C@@H]1C[C@@H](O)CN1; Cit = NC(=O)NCCC[C@H](N)C(=O)O

Tests used:
[1] = Physical stability of peptide analogues (Thioflavin T fibrillation); type: physicochemical; conditions: maximum ThT signal normalized between hAMY maximum and buffer background; 40° C., shaking, four days; pH 7 per table title
Method in brief: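 Samples are stressed at 40 °C for four days, being shaken at 700 rpm before each 10-min fluorescence reading of 4 μM Thioflavin T. Buffers were pH 4 acetate or pH 7 phosphate. Reported values are smoothed maximum ThT signals as a percentage of the hAMY-to-background range.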

[2] = target: hAM1 receptor (Homo sapiens, UniProt O60895+Q16602); assay: cAMP assay for in vitro receptor activation, hAM1-R; type: cell-based; conditions: cAMP assay, hAM1 receptor; read-out: hAM1R EC50
Sequence of hAM1 receptor (Q16602 23-461): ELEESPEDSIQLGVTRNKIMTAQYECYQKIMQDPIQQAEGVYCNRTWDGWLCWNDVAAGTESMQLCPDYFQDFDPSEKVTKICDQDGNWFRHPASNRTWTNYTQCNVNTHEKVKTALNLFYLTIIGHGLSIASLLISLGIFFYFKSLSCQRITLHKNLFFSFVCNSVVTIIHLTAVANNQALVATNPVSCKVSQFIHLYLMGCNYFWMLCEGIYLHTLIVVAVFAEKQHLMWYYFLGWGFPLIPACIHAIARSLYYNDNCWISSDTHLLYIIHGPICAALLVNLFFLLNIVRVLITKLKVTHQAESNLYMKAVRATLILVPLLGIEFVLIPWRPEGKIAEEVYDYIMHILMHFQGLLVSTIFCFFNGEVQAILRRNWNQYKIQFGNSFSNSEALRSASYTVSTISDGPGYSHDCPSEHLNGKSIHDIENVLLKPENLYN
Sequence of hAM1 receptor (O60895 43-175 partner): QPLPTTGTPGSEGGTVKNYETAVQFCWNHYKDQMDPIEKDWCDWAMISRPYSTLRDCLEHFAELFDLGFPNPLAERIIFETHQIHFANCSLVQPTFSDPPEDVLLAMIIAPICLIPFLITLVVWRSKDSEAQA
Method in brief: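 Read-out is intracellular cAMP as a measure of receptor activation. Cells stably overexpressing hAM1 were subcloned to a monoclonal line, then thawed and seeded at 8000 cells/well in DPBS with 0.05% casein and the phosphodiesterase inhibitor IBMX at 0.5 mM.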

Question: Which “Max ThT signal (%)” value [1] does the source give for `CC[C@H](C)[C@H](NC(=O)[C@H](CC(N)=O)NC(=O)[C@H](CO)NC(=O)[C@H](CCCNC(=N)N)NC(=O)[C@@H]1CCCN1C(=O)[C@H](C)NC(=O)[C@@H](NC(=O)[C@H](CC(N)=O)NC(=O)[C@H](CC(=O)O)NC(=O)[C@H](CCCCN)NC(=O)[C@H](CC(=O)O)NC(=O)[C@H](CCCCN)NC(=O)[C@H](CC(=O)O)NC(=O)[C@@H](NC(=O)[C@H](Cc1ccccc1)NC(=O)[C@H](CCC(N)=O)NC(=O)[C@H](Cc1ccc(O)cc1)NC(=O)[C@@H](NC(=O)[C@H](CCC(N)=O)NC(=O)[C@H](Cc1c[nH]cn1)NC(=O)[C@H](C)NC(=O)[C@H](CC(C)C)NC(=O)[C@H](CCCNC(N)=O)NC(=O)[C@H](CCC(N)=O)NC(=O)[C@@H](NC(=O)[C@@H](NC(=O)[C@@H]1CSSC[C@H](NC(=O)CN)C(=O)N[C@@H](CCCNC(=N)N)C(=O)N[C@@H]([C@@H](C)O)C(=O)NCC(=O)N[C@@H]([C@@H](C)O)C(=O)N1)[C@@H](C)O)C(C)C)[C@@H](C)CC)[C@@H](C)O)C(C)C)C(=O)NCC(=O)N1CCC[C@H]1C(=O)N[C@@H](CCC(N)=O)C(=O)NCC(=O)N1C[C@H](O)C[C@H]1C(N)=O` [compound 303] (H-GCRTGTCTVQ[Cit]LAHQIYQFTDKDKDNVAPRSNIGPQG[Hyp]-NH2; disulfide 2-7) here?
Answer: Its value is 18.150%.

Question: What about the EC50 [2] of the same compound?
Answer: The EC50 was > 5 µM.

Question: Which “Max ThT signal (%)” value [1] does the source give for `CC[C@H](C)[C@H](NC(=O)[C@H](CCC(N)=O)NC(=O)[C@H](Cc1c[nH]cn1)NC(=O)[C@H](C)NC(=O)[C@H](CC(C)C)NC(=O)[C@H](CCCNC(N)=O)NC(=O)[C@H](CCC(N)=O)NC(=O)[C@@H](NC(=O)[C@@H](NC(=O)[C@@H]1CSSC[C@H](NC(=O)CN)C(=O)N[C@@H](CCCNC(=N)N)C(=O)N[C@@H]([C@@H](C)O)C(=O)NCC(=O)N[C@@H]([C@@H](C)O)C(=O)N1)[C@@H](C)O)C(C)C)C(=O)N[C@@H](Cc1ccc(O)cc1)C(=O)N[C@@H](CCC(N)=O)C(=O)N[C@@H](Cc1ccccc1)C(=O)N[C@H](C(=O)N[C@@H](CC(=O)O)C(=O)N[C@@H](CCCCN)C(=O)N[C@@H](CC(=O)O)C(=O)N[C@@H](CCCCN)C(=O)N[C@@H](CC(=O)O)C(=O)N[C@@H](CC(N)=O)C(=O)N[C@H](C(=O)N[C@@H](C)C(=O)N1CCC[C@H]1C(=O)N[C@@H](CCCNC(=N)N)C(=O)N[C@@H](CO)C(=O)N[C@@H](CC(N)=O)C(=O)N[C@H](C(=O)N[C@@H](CO)C(=O)N1CCC[C@H]1C(=O)N[C@@H](CC(N)=O)C(=O)NCC(=O)N1C[C@H](O)C[C@H]1C(N)=O)C(C)C)C(C)C)[C@@H](C)O` [compound 304] (H-GCRTGTCTVQ[Cit]LAHQIYQFTDKDKDNVAPRSNVSPNG[Hyp]-NH2; disulfide 2-7) here?
Answer: The value was 22.350%.

Question: And the EC50 [2]?
Answer: Its EC50 is > 5 µM.

Question: For `CC(C)C[C@H](NC(=O)[C@H](Cc1c[nH]c2ccccc12)NC(=O)[C@H](CCC(N)=O)NC(=O)[C@@H](NC(=O)[C@@H](NC(=O)[C@@H]1CSSC[C@H](NC(=O)CN)C(=O)N[C@@H](CCCNC(=N)N)C(=O)N[C@@H](Cc2ccccc2)C(=O)NCC(=O)N[C@@H]([C@@H](C)O)C(=O)N1)[C@@H](C)O)C(C)C)C(=O)N[C@@H](C)C(=O)N[C@@H](CC(N)=O)C(=O)N[C@@H](Cc1ccccc1)C(=O)N[C@@H](CC(C)C)C(=O)N[C@@H](Cc1ccc(O)cc1)C(=O)N[C@@H](CCC(N)=O)C(=O)N[C@@H](Cc1ccccc1)C(=O)N[C@H](C(=O)N[C@@H](CC(=O)O)C(=O)N[C@@H](CCCCN)C(=O)N[C@@H](CC(=O)O)C(=O)N[C@@H](CCCCN)C(=O)N[C@@H](CC(=O)O)C(=O)N[C@@H](CC(N)=O)C(=O)N[C@H](C(=O)N[C@@H](C)C(=O)N1CCC[C@H]1C(=O)N[C@@H](CCCNC(=N)N)C(=O)N[C@H](C(=O)N[C@@H](CC(N)=O)C(=O)N[C@H](C(=O)NCC(=O)N1CCC[C@H]1C(=O)N[C@@H](CCC(N)=O)C(=O)NCC(=O)N[C@@H](Cc1ccc(O)cc1)C(N)=O)C(C)C)[C@@H](C)O)C(C)C)[C@@H](C)O` [compound 311] (H-GCRFGTCTVQWLANFLYQFTDKDKDNVAPRTNVGPQGY-NH2; disulfide 2-7; N-terminus assumed), which “Max ThT signal (%)” value [1] is on record?
Answer: The value was 6.450%.

Question: What about the EC50 [2] of the same compound?
Answer: Its EC50 is > 5 µM.

Question: For `CC[C@H](C)[C@H](NC(=O)[C@H](CCC(N)=O)NC(=O)[C@H](CCC(=O)O)NC(=O)[C@H](C)NC(=O)[C@H](CC(C)C)NC(=O)[C@H](Cc1c[nH]c2ccccc12)NC(=O)[C@H](CCC(N)=O)NC(=O)[C@@H](NC(=O)[C@@H](NC(=O)[C@@H]1CSSC[C@H](NC(=O)[C@@H](N)CCCCN)C(=O)N[C@@H](CC(N)=O)C(=O)N[C@@H]([C@@H](C)O)C(=O)N[C@@H](C)C(=O)N[C@@H]([C@@H](C)O)C(=O)N1)[C@@H](C)O)C(C)C)C(=O)N[C@@H](Cc1ccc(O)cc1)C(=O)N[C@@H](CCC(N)=O)C(=O)N[C@@H](Cc1ccccc1)C(=O)N[C@H](C(=O)N[C@@H](CC(=O)O)C(=O)N[C@@H](CCCCN)C(=O)N[C@@H](CC(=O)O)C(=O)N[C@@H](CCCCN)C(=O)N[C@@H](CC(=O)O)C(=O)N[C@@H](CC(N)=O)C(=O)N[C@H](C(=O)N[C@@H](C)C(=O)N1CCC[C@H]1C(=O)N1CCC[C@H]1C(=O)N[C@@H](Cc1ccc(O)cc1)C(=O)N[C@@H](CC(N)=O)C(=O)N[C@@H](CCC(=O)O)C(=O)NCC(=O)N[C@@H](CO)C(=O)N[C@@H](CC(N)=O)C(=O)NCC(=O)N1C[C@H](O)C[C@H]1C(N)=O)C(C)C)[C@@H](C)O` [compound 321] (H-KCNTATCTVQWLAEQIYQFTDKDKDNVAPPYNEGSNG[Hyp]-NH2; disulfide 2-7; N-terminus assumed), which “Max ThT signal (%)” value [1] is on record?
Answer: The value was 21.700%.

Question: And the EC50 [2]?
Answer: Its EC50 is > 5 µM.

Question: For `CC[C@H](C)[C@H](NC(=O)[C@H](CCC(N)=O)NC(=O)[C@H](Cc1c[nH]cn1)NC(=O)[C@H](C)NC(=O)[C@H](CC(C)C)NC(=O)[C@H](Cc1c[nH]c2ccccc12)NC(=O)[C@H](CCC(N)=O)NC(=O)[C@@H](NC(=O)[C@@H](NC(=O)[C@@H]1CSSC[C@H](NC(=O)[C@@H](N)CCCCN)C(=O)N[C@@H](CC(N)=O)C(=O)N[C@@H]([C@@H](C)O)C(=O)N[C@@H](C)C(=O)N[C@@H]([C@@H](C)O)C(=O)N1)[C@@H](C)O)C(C)C)C(=O)N[C@@H](Cc1ccc(O)cc1)C(=O)N[C@@H](CCC(N)=O)C(=O)N[C@@H](C)C(=O)N[C@H](C(=O)N[C@@H](CC(=O)O)C(=O)N[C@@H](CCCCN)C(=O)N[C@@H](CC(=O)O)C(=O)N[C@@H](CCCCN)C(=O)N[C@@H](CC(=O)O)C(=O)N[C@@H](CC(N)=O)C(=O)N[C@H](C(=O)N[C@@H](C)C(=O)N1CCC[C@H]1C(=O)N1CCC[C@H]1C(=O)N[C@H](C(=O)N[C@@H](CC(N)=O)C(=O)N[C@H](C(=O)NCC(=O)N[C@@H](CO)C(=O)N[C@@H](CC(N)=O)C(=O)NCC(=O)N1C[C@H](O)C[C@H]1C(N)=O)C(C)C)[C@@H](C)O)C(C)C)[C@@H](C)O` [compound 338] (H-KCNTATCTVQWLAHQIYQATDKDKDNVAPPTNVGSNG[Hyp]-NH2; disulfide 2-7; N-terminus assumed), which “Max ThT signal (%)” value [1] is on record?
Answer: The value was 2.950%.

Question: What about the EC50 [2] of the same compound?
Answer: The EC50 was > 5 µM.

Question: Which results are given for `CC[C@H](C)[C@H](NC(=O)[C@H](CCC(N)=O)NC(=O)[C@H](Cc1c[nH]cn1)NC(=O)[C@H](C)NC(=O)[C@H](CC(C)C)NC(=O)[C@H](Cc1c[nH]c2ccccc12)NC(=O)[C@H](CCC(N)=O)NC(=O)[C@@H](NC(=O)[C@@H](NC(=O)[C@@H]1CSSC[C@H](NC(=O)CN)C(=O)N[C@@H](CCCNC(=N)N)C(=O)N[C@@H]([C@@H](C)O)C(=O)NCC(=O)N[C@@H]([C@@H](C)O)C(=O)N1)[C@@H](C)O)C(C)C)C(=O)N[C@@H](Cc1ccc(O)cc1)C(=O)N[C@@H](CCC(N)=O)C(=O)N[C@@H](Cc1ccccc1)C(=O)N[C@H](C(=O)N[C@@H](CC(=O)O)C(=O)N[C@@H](CCCCN)C(=O)N[C@@H](CC(=O)O)C(=O)N[C@@H](CCCCN)C(=O)N[C@@H](CC(=O)O)C(=O)N[C@@H](CC(N)=O)C(=O)N[C@H](C(=O)N[C@@H](C)C(=O)N1CCC[C@H]1C(=O)N[C@@H](CCCNC(=N)N)C(=O)N[C@@H](CO)C(=O)N[C@@H](CCCCN)C(=O)N[C@H](C(=O)NCC(=O)N1CCC[C@H]1C(=O)N[C@@H](CCC(N)=O)C(=O)NCC(=O)N[C@@H](Cc1ccc(O)cc1)C(N)=O)C(C)C)C(C)C)[C@@H](C)O` [compound 344] (H-GCRTGTCTVQWLAHQIYQFTDKDKDNVAPRSKVGPQGY-NH2; disulfide 2-7; N-terminus assumed)?
Answer: Max ThT signal (%) [1]: 13.350%; EC50 [2]: > 5 µM

Question: For `CC[C@H](C)[C@H](NC(=O)[C@H](CCC(N)=O)NC(=O)[C@H](Cc1c[nH]cn1)NC(=O)[C@H](C)NC(=O)[C@H](CC(C)C)NC(=O)[C@H](Cc1c[nH]c2ccccc12)NC(=O)[C@H](CCC(N)=O)NC(=O)[C@@H](NC(=O)[C@@H](NC(=O)[C@@H]1CSSC[C@H](NC(=O)CN)C(=O)N[C@@H](CCCNC(=N)N)C(=O)N[C@@H]([C@@H](C)O)C(=O)NCC(=O)N[C@@H]([C@@H](C)O)C(=O)N1)[C@@H](C)O)C(C)C)C(=O)N[C@@H](Cc1ccc(O)cc1)C(=O)N[C@@H](CCC(N)=O)C(=O)N[C@@H](Cc1ccccc1)C(=O)N[C@H](C(=O)N[C@@H](CC(=O)O)C(=O)N[C@@H](CCCCN)C(=O)N[C@@H](CC(=O)O)C(=O)N[C@@H](CCCCN)C(=O)N[C@@H](CC(=O)O)C(=O)N[C@@H](CC(N)=O)C(=O)N[C@H](C(=O)N[C@@H](C)C(=O)N1CCC[C@H]1C(=O)N[C@@H](CCCNC(=N)N)C(=O)N[C@H](C(=O)N[C@@H](CCCCN)C(=O)N[C@H](C(=O)NCC(=O)N1CCC[C@H]1C(=O)N[C@@H](CCC(N)=O)C(=O)NCC(=O)N1C[C@H](O)C[C@H]1C(N)=O)C(C)C)[C@@H](C)O)C(C)C)[C@@H](C)O` [compound 349] (H-GCRTGTCTVQWLAHQIYQFTDKDKDNVAPRTKVGPQG[Hyp]-NH2; disulfide 2-7; N-terminus assumed), which “Max ThT signal (%)” value [1] is on record?
Answer: The value was 15.250%.

Question: And the EC50 [2]?
Answer: The EC50 was > 5 µM.
